Measured values from the supplement of paper PMC11451515.

How the values were obtained:
Conditions in all cases: 48 h
SEM cells [1] = assay: cell viability relative to DMSO control; higher = less cytotoxic
Method in brief: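 Viability, reported as a per-plate percentage of DMSO wells with cell-free wells as background, came from CellTiter-Glo One luminescence. Reading took place after 48 h at 37°C. Before that, NOMO1 or SEM (500 cells/well) or P12-Ichikawa (1000 cells/well) leukemia cells, adapted for at least four passages in each medium, were seeded in 1536-well plates (5 μl) and pin-dosed with library compounds in DMSO, 47 μM to 0.79 nM over 11 threefold points.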

NOMO1 = assay: AUC of viability dose-response curve (% viability x log10 dose units); higher = less sensitive
Method in brief: (§1)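 Seeding of medium-adapted leukemia cells was at 500 or 1000 cells/well in 1536-well plates, followed by 48 h at 37°C with library compounds in DMSO at 11 threefold doses from 47 μM to 0.79 nM. CellTiter-Glo One luminescence was normalised per plate to DMSO and cell-free wells and fitted as a four-parameter log-logistic function of log10 dose. Area under the curve was integrated by trapezoidal rule, with curves exceeding full viability scaled and curves failing quality control removed.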

SEM cells [2] = assay: as above
Method in brief: as §1

P12-Ichikawa = assay: as above
Method in brief: as §1

[3] = HPLM + 10% dialyzed FBS, 0.000781 µM
[4] = HPLM + 10% dialyzed FBS, 0.00234 µM
[5] = HPLM + 10% dialyzed FBS, 0.00702 µM
[6] = HPLM + 10% dialyzed FBS, 0.0211 µM
[7] = HPLM + 10% dialyzed FBS, 0.0632 µM
[8] = HPLM + 10% dialyzed FBS, 0.19 µM
[9] = HPLM + 10% dialyzed FBS, 0.569 µM
[10] = HPLM + 10% dialyzed FBS, 1.71 µM
[11] = HPLM + 10% dialyzed FBS, 5.12 µM
[12] = HPLM + 10% dialyzed FBS, 15.4 µM
[13] = HPLM + 10% dialyzed FBS, 46.1 µM
[14] = RPMI 5 mM glucose + 10% dialyzed FBS

Compound | cell viability (SEM cells [1]; [3]) [%] | cell viability (SEM cells [1]; [4]) [%] | cell viability (SEM cells [1]; [5]) [%] | cell viability (SEM cells [1]; [6]) [%] | cell viability (SEM cells [1]; [7]) [%] | cell viability (SEM cells [1]; [8]) [%] | cell viability (SEM cells [1]; [9]) [%] | cell viability (SEM cells [1]; [10]) [%] | cell viability (SEM cells [1]; [11]) [%] | cell viability (SEM cells [1]; [12]) [%] | cell viability (SEM cells [1]; [13]) [%] | AUC of viability dose-response curve (NOMO1; HPLM + 10% dialyzed FBS) | AUC of viability dose-response curve (NOMO1; RPMI 5 mM glucose + 10% FBS) | AUC of viability dose-response curve (NOMO1; [14]) | AUC of viability dose-response curve (SEM cells [2]; HPLM + 10% dialyzed FBS) | AUC of viability dose-response curve (SEM cells [2]; RPMI 5 mM glucose + 10% FBS) | AUC of viability dose-response curve (SEM cells [2]; [14]) | AUC of viability dose-response curve (P12-Ichikawa; HPLM + 10% dialyzed FBS) | AUC of viability dose-response curve (P12-Ichikawa; RPMI 5 mM glucose + 10% FBS) | AUC of viability dose-response curve (P12-Ichikawa; [14]) | cell viability (SEM cells [1]; RPMI 5 mM glucose + 10% FBS, 0.000781 µM) [%] | cell viability (SEM cells [1]; RPMI 5 mM glucose + 10% FBS, 0.00234 µM) [%] | cell viability (SEM cells [1]; RPMI 5 mM glucose + 10% FBS, 0.00702 µM) [%] | cell viability (SEM cells [1]; RPMI 5 mM glucose + 10% FBS, 0.0211 µM) [%] | cell viability (SEM cells [1]; RPMI 5 mM glucose + 10% FBS, 0.0632 µM) [%] | cell viability (SEM cells [1]; RPMI 5 mM glucose + 10% FBS, 0.19 µM) [%] | cell viability (SEM cells [1]; RPMI 5 mM glucose + 10% FBS, 0.569 µM) [%] | cell viability (SEM cells [1]; RPMI 5 mM glucose + 10% FBS, 1.71 µM) [%] | cell viability (SEM cells [1]; RPMI 5 mM glucose + 10% FBS, 5.12 µM) [%] | cell viability (SEM cells [1]; RPMI 5 mM glucose + 10% FBS, 15.4 µM) [%] | cell viability (SEM cells [1]; RPMI 5 mM glucose + 10% FBS, 46.1 µM) [%]
Cn1ccc2cc3c(cc21)CCN3C(=O)Nc1cccnc1 | 100 | 113 | 132 | 116 | 123 | 158 | 140 | 127 | 125 | 137 | 59.8 | 460 | 451 | 466 | 464 | 461 | 461 | 464 | 462 | 463 |  |  |  |  |  |  |  |  |  |  | 
O=C(Nc1cccc(Br)c1)c1cccc([S+](=O)([O-])N2CCCCCC2)c1 |  |  |  |  |  |  |  |  |  |  |  | 462 | 460 | 470 | 447 | 436 | 441 | 450 | 457 | 464 |  |  |  |  |  |  |  |  |  |  | 
NC(=O)c1noc([C@H](CCCC2CCCCC2)CC(=O)NO)n1 |  |  |  |  |  |  |  |  |  |  |  | 431 | 424 | 441 | 428 | 414 | 429 | 441 | 422 | 421 |  |  |  |  |  |  |  |  |  |  | 
C[C@]\12CCC(=O)\C=C1[C@@H]3C[C@@H]3[C@@H]4[C@@H]2CC[C@@]5(C)[C@H]4[C@@H]6C[C@@H]6[C@@]57CCC(=O)O7 | 89.1 | 97.2 | 107 | 123 | 120 | 112 | 106 | 107 | 133 | 107 | 104 | 469 | 477 | 471 | 450 | 451 | 468 | 474 | 468 | 471 | 98.6 | 111 | 115 | 117 | 137 | 146 | 124 | 134 | 119 | 125 | 146
